In US11008622B2, “Biomarker for predicting sensitivity to EGFR-targeting agent, and use thereof” (THE ASAN FOUNDATION, priority 2014, dated 2021):

What was measured:
[1] = tested on: FZD4 and GPR101 genes; assay: Real-time PCR of EGFR transactivation-related genes after RON inhibition; format: cell-based, human; details: KM12C, RON siRNA 48 hours; FIG. 1E
Experimental: In order to perform the RT-PCR, Colo320HSR colon cancer cell line in which the RON was non-expressed was transfected with construct expressing the RONΔ160 as the RON active type form for 48 hours and KM12C colon cancer cell line in which the RON was activated was transfected with the RON siRNA for 48 hours. The RNA was extracted by using trizol (Cat.#15596-026, Life Technologies™), respectively. The extracted RNA was synthesized to cDNA by using a RT-PCR Kit (AccuPower RT PreMix, Bioneer). The difference in expression of the corresponding gene was verified by PCR (AccuPower PCRPreMix, Bioneer) by using the synthesized cDNA and a gene-specific primer and quantified by using a real-time PCR (LightCycler 480 SYBR Green, Roche).
The inventors analyzed the expression of the genes Adam11, Adam32, FZD4, GPER, and GPR101 associated with the EGFR transactivation with real-time PCR after artificially suppressing the RON activity by using an siRNA technique in the KM12C colon cancer cell line in which the RON was activated, in order to analyze the change aspect of the expression of the EGFR transactivation-related genes according to the RON inhibition.

[2] = tested on: EGFR; assay: EGFR phosphorylation by western blot after RON inhibition by siRNA; format: cell-based, human
Experimental: In order to perform the western blot, a protein separated from each cell was separated through SDS-PAGE and transferred to polyscreen membranes (New England Nuclear, Boston, Mass., USA), reacted for 12 hours at 4° C. by using various antibodies (anti-phospho RON (MyBioSource, San Diego, Calif., USA), anti-phospho Tyrosine, anti-EGFR, anti-phospho EGFR (Cell signaling Technology, Beverly, Mass., USA), anti-RON, and anti-r-tubulin (Santa Cruz Biotechnology), and then washed with a 1×TBS-T buffer solution for 10 minutes three times. A suitable anti-rabbit-HRP or anti-mouse-HRP secondary antibody reacted for 2 hours at room temperature and was washed with the 1×TB S-T buffer solution for 10 minutes three times to verify the expression of the protein by using an ECL solution (Amersham, Buckinghamshire, UK).
The inventors verified the phosphorylation induction of the EGFR by performing the western blot, after artificially suppressing the RON by using a siRNA technique in the KM12C and HT29 colon cancer cell lines in which the RON was expressed and activated, in order to verify the change in activity of the EGFR protein by the activation of the RON protein. […]

## 5′-ACUUUGUAGAGGAGUUUGAUU-3′ (listed as RNA, chemistry not given here) [RON siRNA]
[1]
  FZD4 gene expression: significantly reduced
  GPR101 gene expression: significantly reduced
[2]; KM12C and HT29 colon cancer cell lines, FIG. 2B
  activity of the EGFR (phosphorylation): decreased
[2]; KM12C, by EGF ligand treating time, FIG. 2C
  phosphorylation of the EGFR induced by the EGF: decreased
